In ChEMBL document CHEMBL1201862, “PubChem BioAssay data set” (2004):
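Each compound was tested at five concentrations against cells in 96-well plates for 48 hours. GI50: concentration for 50% inhibition of growth.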 Activity calls are given as the source filed them. No stated cut-off is given here; in the data, active = GI50 up to about 1.1 µM and inactive = higher.

Tests used:
Assay in all cases: DTP human tumour cell line panel, 48 h
CAKI-1 = system: CAKI-1
COLO 205 = system: COLO 205
EKVX = system: EKVX
HCC 2998 = system: HCC 2998
HL-60 = system: HL-60
HT-29 = system: HT-29
IGROV-1 = system: IGROV-1
LOX IMVI = system: LOX IMVI
NCI-H226 = system: NCI-H226
NCI-H522 = system: NCI-H522
OVCAR-3 = system: OVCAR-3
SF-268 = system: SF-268
SK-MEL-2 = system: SK-MEL-2
TK-10 = system: TK-10
UACC-62 = system: UACC-62
OVCAR-8 = system: OVCAR-8

Measured: GI50

COC(=O)C(=O)C(C(=O)C(=O)Nc1cccc(C(C)=O)c1)c1nc2ccccc2nc1O (stereo not given)
inactive: CAKI-1 > 100 µM | COLO 205 > 100 µM | EKVX 48.3 µM | HCC 2998 > 100 µM | HL-60 > 100 µM | HT-29 > 100 µM | IGROV-1 > 100 µM | LOX IMVI > 100 µM | NCI-H226 > 100 µM | NCI-H522 > 100 µM | OVCAR-3 > 100 µM | SF-268 > 100 µM | SK-MEL-2 > 100 µM | TK-10 > 100 µM | UACC-62 > 100 µM

CC(=O)NC1=C(C)C(=O)c2c(nc3n2CCC3OC(=O)CCl)C1=O (stereo not given)
inactive: CAKI-1 20.9 µM | COLO 205 17.5 µM | EKVX 8.57 µM | HCC 2998 12.9 µM | HL-60 2.51 µM | HT-29 15.6 µM | IGROV-1 11.8 µM | LOX IMVI 4.15 µM | NCI-H226 2.52 µM | NCI-H522 3.05 µM | OVCAR-3 1.41 µM | OVCAR-8 4.1 µM | SF-268 10.3 µM | SK-MEL-2 3 µM | TK-10 21 µM | UACC-62 2.81 µM

O=S(=O)(/C=C/c1ccc(Cl)cc1Cl)Cc1ccccc1CS(=O)(=O)/C=C/c1ccc(Cl)cc1Cl
inactive: CAKI-1 > 100 µM | COLO 205 > 100 µM | EKVX > 100 µM | HCC 2998 > 100 µM | HT-29 49.4 µM | IGROV-1 > 100 µM | LOX IMVI > 100 µM | NCI-H226 > 100 µM | NCI-H522 > 100 µM | OVCAR-3 > 100 µM | OVCAR-8 7.5 µM | SF-268 40.5 µM | SK-MEL-2 > 100 µM | TK-10 > 100 µM | UACC-62 8.38 µM

N#CC(C(=O)CCC(=O)Nc1ccc(Cl)cc1)c1ccc(Cl)cc1 (stereo not given)
inactive: CAKI-1 92.5 µM | COLO 205 > 100 µM | EKVX > 100 µM | HCC 2998 > 100 µM | HL-60 > 100 µM | HT-29 > 100 µM | IGROV-1 89.5 µM | LOX IMVI 78.5 µM | NCI-H226 > 100 µM | NCI-H522 > 100 µM | OVCAR-3 > 100 µM | OVCAR-8 > 100 µM | SF-268 93.3 µM | SK-MEL-2 > 100 µM | TK-10 > 100 µM | UACC-62 10.7 µM

Cc1ccc(S(=O)(=O)N/N=C/c2oc(-c3ccccc3Cl)c(-c3ccccc3Cl)c2[N+](=O)[O-])cc1
inactive: CAKI-1 36.9 µM | COLO 205 28.1 µM | EKVX 31.5 µM | HCC 2998 21 µM | HL-60 8.02 µM | HT-29 31.2 µM | IGROV-1 24.9 µM | NCI-H522 6.07 µM | OVCAR-3 > 100 µM | OVCAR-8 22.3 µM | SF-268 36.1 µM | SK-MEL-2 25 µM | TK-10 59 µM | UACC-62 17.8 µM

Nc1c(S(=O)(=O)c2ccccc2)c2nc3ccccc3nc2n2c1nc1ccccc12
inactive: CAKI-1 > 54.1 µM | COLO 205 > 100 µM | EKVX > 68.5 µM | HCC 2998 > 78.5 µM | HL-60 > 100 µM | HT-29 > 84.1 µM | IGROV-1 > 57.3 µM | LOX IMVI > 60.8 µM | NCI-H226 37.5 µM | NCI-H522 36.5 µM | OVCAR-3 > 25.4 µM | OVCAR-8 20.1 µM | SF-268 > 45.3 µM | SK-MEL-2 > 55.3 µM | TK-10 > 100 µM | UACC-62 > 62.8 µM

CCOC(=O)C12CCCC1(O)N(NC(=O)c1cccc(Cl)c1)C(C)=C2C(=O)OC (stereo not given)
inactive: CAKI-1 > 100 µM | EKVX 56.6 µM | HCC 2998 > 100 µM | HL-60 > 100 µM | HT-29 > 100 µM | IGROV-1 > 100 µM | LOX IMVI > 100 µM | NCI-H226 > 100 µM | NCI-H522 40.5 µM | OVCAR-3 > 100 µM | OVCAR-8 > 100 µM | SF-268 > 100 µM | SK-MEL-2 > 100 µM | UACC-62 > 100 µM

C[C@@H](NS(=O)(=O)c1ccc(NC(=O)c2ccccc2)cc1)C(=O)O
inactive: CAKI-1 > 100 µM | COLO 205 > 100 µM | EKVX > 100 µM | HCC 2998 > 100 µM | HL-60 > 100 µM | HT-29 > 100 µM | IGROV-1 > 100 µM | LOX IMVI > 100 µM | NCI-H522 > 100 µM | OVCAR-3 > 100 µM | OVCAR-8 > 100 µM | SF-268 > 100 µM | SK-MEL-2 > 100 µM | TK-10 > 100 µM | UACC-62 > 100 µM

OCC(O)C(OC1OC(CO)C(O)C(O)C1O)c1nn(-c2ccc(Cl)cc2)c2nc3cc(Cl)c(Cl)cc3nc12 (stereo not given)
inactive: EKVX > 100 µM | HCC 2998 > 100 µM | HT-29 > 100 µM | LOX IMVI > 100 µM | NCI-H522 > 100 µM | OVCAR-3 > 100 µM | OVCAR-8 > 100 µM | SF-268 > 100 µM | TK-10 > 100 µM | UACC-62 > 100 µM

COC(=O)c1cccn1C(=O)n1cccc1
inactive: CAKI-1 > 100 µM | COLO 205 > 100 µM | EKVX > 100 µM | HCC 2998 > 100 µM | HL-60 > 100 µM | HT-29 > 100 µM | IGROV-1 > 100 µM | LOX IMVI > 100 µM | NCI-H226 > 100 µM | NCI-H522 > 100 µM | OVCAR-3 > 100 µM | OVCAR-8 > 100 µM | SF-268 > 100 µM | SK-MEL-2 > 100 µM | TK-10 > 100 µM | UACC-62 > 100 µM

CCN(CC)CC(=O)NC1c2ccccc2Oc2c(C)cccc21 (stereo not given)
inactive: COLO 205 > 100 µM | EKVX > 100 µM | HCC 2998 > 100 µM | HL-60 37.7 µM | HT-29 > 100 µM | IGROV-1 > 100 µM | LOX IMVI > 100 µM | NCI-H226 > 100 µM | OVCAR-8 > 100 µM | SF-268 > 100 µM | TK-10 > 100 µM | UACC-62 > 100 µM

CC(=O)C1CCN(c2ccccc2)C1 (stereo not given)
inactive: CAKI-1 > 100 µM | EKVX > 100 µM | HL-60 > 100 µM | HT-29 > 100 µM | IGROV-1 > 100 µM | NCI-H226 > 100 µM | NCI-H522 > 100 µM | OVCAR-3 > 100 µM | OVCAR-8 > 100 µM | SF-268 > 100 µM | SK-MEL-2 > 100 µM | TK-10 > 100 µM | UACC-62 > 100 µM

N#CC12Cc3ccc4c(c3-c3cccc(c31)CCN2C(=O)c1ccccc1)OCO4 (stereo not given)
inactive: COLO 205 > 100 µM | EKVX > 100 µM | HCC 2998 > 100 µM | HL-60 > 100 µM | HT-29 > 100 µM | IGROV-1 > 100 µM | LOX IMVI > 100 µM | NCI-H226 > 100 µM | NCI-H522 > 10 µM | OVCAR-3 > 100 µM | OVCAR-8 > 100 µM | SF-268 > 100 µM | TK-10 > 100 µM | UACC-62 > 100 µM

O=CC1=CCC2c3[nH]c4ccccc4c3CCN2C1 (stereo not given)
inactive: CAKI-1 > 396 µM | COLO 205 232 µM | EKVX > 396 µM | HCC 2998 103 µM | HL-60 77.6 µM | HT-29 101 µM | IGROV-1 125 µM | LOX IMVI 58.7 µM | NCI-H226 117 µM | NCI-H522 325 µM | OVCAR-3 92.5 µM | OVCAR-8 139 µM | SF-268 167 µM | SK-MEL-2 90.8 µM | TK-10 259 µM | UACC-62 93.8 µM

Clc1ccc(CCn2cncn2)c(Cl)c1
inactive: CAKI-1 > 100 µM | COLO 205 > 100 µM | EKVX > 100 µM | HCC 2998 > 100 µM | HL-60 > 100 µM | HT-29 > 100 µM | IGROV-1 > 100 µM | NCI-H226 > 100 µM | NCI-H522 > 100 µM | OVCAR-3 > 100 µM | OVCAR-8 > 100 µM | SF-268 > 100 µM | TK-10 > 100 µM | UACC-62 > 100 µM

O=C(O)C[C@@H](Cl)[C@H](NC(=O)OCc1ccccc1)C(=O)O
inactive: CAKI-1 > 100 µM | COLO 205 > 100 µM | EKVX > 100 µM | HCC 2998 > 100 µM | HL-60 > 100 µM | HT-29 > 100 µM | IGROV-1 > 100 µM | LOX IMVI > 100 µM | NCI-H226 > 100 µM | NCI-H522 > 100 µM | OVCAR-3 > 100 µM | OVCAR-8 > 100 µM | SF-268 > 100 µM | SK-MEL-2 > 100 µM | TK-10 > 100 µM | UACC-62 > 100 µM

Cc1cc2c(=O)cc(-c3ccc(C(F)(F)F)cc3)oc2c(C(=O)O)c1C
inactive: CAKI-1 > 100 µM | COLO 205 > 100 µM | EKVX > 100 µM | HT-29 > 100 µM | IGROV-1 > 100 µM | LOX IMVI > 100 µM | NCI-H226 > 100 µM | NCI-H522 > 100 µM | OVCAR-3 > 100 µM | OVCAR-8 > 100 µM | SF-268 > 100 µM | SK-MEL-2 > 100 µM | TK-10 > 100 µM | UACC-62 > 100 µM

COC(=O)C1CCC2(C)[C@H](CCC3O[C@]32C)[C@@]1(C)CC(=O)c1ccoc1 (stereo not given in full)
inactive: CAKI-1 > 100 µM | COLO 205 > 100 µM | EKVX 18.7 µM | HCC 2998 > 100 µM | HL-60 75 µM | IGROV-1 58.6 µM | LOX IMVI > 100 µM | NCI-H226 > 100 µM | NCI-H522 21.2 µM | OVCAR-3 > 100 µM | OVCAR-8 > 100 µM | SF-268 48.4 µM | TK-10 36.9 µM | UACC-62 88.5 µM
